In US7960349B2 (Bristol-Myers Squibb Company, priority 2006, dated 2011):
Where “and” joins values, the source holds several entries; their conditions need not be identical. Identical values can stand only once. Like-named read-outs stand apart in the source and are kept apart here. Where a SMILES comes first, the peptide text is derived from it. [ ]: non-standard residue; d: D form. The star is where a group is joined. ξ: configuration not given here. Ala(6-(2-MePh)pyridin-3-yl) = Cc1ccccc1-c1ccc(C[C@H](N)C(=O)O)cn1; Bip(2'-Et-4'-OMe) = CCc1cc(OC)ccc1-c1ccc(C[C@H](N)C(=O)O)cc1; Lactoyl(3-(imidazol-4-yl)) = O=C([C@@H](O)Cc1c[nH]cn1)*; Bip(2'-Me) = Cc1ccccc1-c1ccc(C[C@H](N)C(=O)O)cc1; ξαMePhe(2-F) = CC(N)(Cc1ccccc1F)C(=O)O; Thr(3ξ) = CC(O)[C@H](N)C(=O)O; ξαMeP = CC1(C(=O)O)CCCN1; Aib = CC(C)(N)C(=O)O

Assays:
[1] = system: ob/ob mice; experiment: Intraperitoneal glucose tolerance test (ipGTT) in ob/ob mice after sc injection; assay type: in vivo, mouse; conditions: for Potency in ob/ob mice: % AUC Reduction in Plasma Glucose in an IP Glucose Tolerance Test after SC Injection of Compound: 10 nmol/kg sc, relative to vehicle-treated group; for effect on postprandial plasma insulin / effect on postprandial plasma glucose: sc; for effect on postprandial plasma glucose: 0 to 180 or 210 min; for Potency in ob/ob mice ED50: sc injection, plasma glucose AUC in ipGTT
Procedure: (§1) Peptides were dissolved in an appropriate vehicle at a concentration in nmol/ml equivalent to the dose that was to be administered in nmol/kg so that each mouse would receive the same volume/weight of dosing solution. Male C57BL/6-ob/ob mice (10 weeks old) were randomized into groups of 6 mice per group based on fed plasma glucose and body weight. After an overnight fast, mice were weighed and placed in the experimental lab. After 30 min in the environment, the mice were bled via tail tip at −30 min and immediately injected subcutaneously (sc) with vehicle or the peptide dissolved in vehicle (0.1 ml solution/100 g body weight). At time 0 the mice were bled and then injected intraperitoneally with 50% glucose (2 g/kg) to initiate the intraperitoneal glucose tolerance test (ipGTT). The mice were bled 30, 60, 120 and 180 min after the glucose injection. Blood samples were drawn into potassium EDTA, placed on ice during the study and subsequently centrifuged for 10 min at 3000 rpm at 4° C. Plasma samples were diluted 11-fold for glucose analysis in the Cobas System. Another 5 μl plasma sample was diluted 5-fold with 20 μl of Sample Diluent (Insulin ELISA assay kit, Crystal Chem. Inc.) and stored at −20° C. for subsequent analysis using the Ultra Sensitive Mouse Insulin ELISA kit (Crystal Chem Inc.).

[2] = Exposure during ipGTT in ob/ob mice; assay type: in vivo, mouse; conditions: sc injection
Procedure: as §1

[3] = Dog pharmacokinetic study; assay type: in vivo; conditions: for half-life: read-out: t½ (converted)
Procedure: The pharmacokinetic parameters of the Compounds of SEQ ID NO: 9, 118, 151 and 158 were determined in male beagle dogs (n=3-4, 14±1 kg). Following an overnight fast, each animal received the Compounds of SEQ ID NO: 9, 118, 151 and 158 either as an intravenous bolus via femoral vein (67 μg/kg) or by subcutaneous injection given at near the shoulder blades (67 μg/kg). Each animal received both intravenous and subcutaneous doses with a one-week washout between doses following a crossover design. The dosing vehicle for both routes of administration was propylene glycol:pH 7.4 phosphate buffer (50:50) or 0.2 M Tris (pH 8.0). Serial blood samples were collected in EDTA-containing microcentrifuge tubes at predose, 0.083, 0.25, 0.5, 0.75, 1, 2, 4, 6, 8, 24, and 30 hours post-dose after intravenous administration; at predose, 0.25, 0.5, 0.75, 1, 2, 4, 6, 8, 24, and 30 hours post-dose after subcutaneous administration. Approximately 0.3 mL of blood was collected at each time point. Blood samples were immediately centrifuged at 4° C. The obtained plasma was frozen with dry ice and stored at −20° C. Plasma drug levels were determined using the LC-MS/MS assay described below.
Plasma samples from the in vivo dog study were prepared for analysis by precipitating plasma proteins with two volumes of AcCN containing an internal standard. The samples were vortex mixed and the precipitated proteins were removed by centrifugation. The resulting supernatants were transferred to a 96-well plate and 10 μL were injected for TFC-LC/MS/MS analysis.
The TFC-HPLC system (Cohesive TX-1 Flux, Aria 2300 System) consisted of a loading pump, an eluting pump, and a CTC PAL autosampler (Cohesive Technologies, Franklin, Mass.). The columns used were Phenomenex Synergi Fusion-RP (C18, 2.0×50 mm, 4μ) (Phenomenex, Torrance, Calif.) as the analytical column and Turbo-Flow (TF) HTLC Cyclone column (0.5×50 mm) (Cohesive Technologies, Franklin, Mass.) as the extraction column for on-line sample processing. The mobile phase A consisted of 10 mM ammonium formate and 0.1% formic acid in water and mobile phase B consisted of 0.1% formic acid in AcCN. Turbo-Flow Chromatography was used to obtain a cleaner sample. A rapid gradient elution was used for analyte separation. The samples were injected onto the Turbo-Flow HTLC Cyclone column and analytes were separated from biological fluid components with using 100% H2O at 1.5 mL/min. The TF column was back flushed and analytes were back eluted from the TF to HPLC analytical column using a ramp to 60% B over 2 min and held there for 30 seconds at 0.3 mL/min to separate and to elute the analytes from the HPLC column into the mass spectrometer. Both columns were washed for an additional minute and then both columns were re-equilibrated at initial conditions.
The HPLC was interfaced to a Sciex API 4000 mass spectrometer (Applied Biosystems, Foster City, Calif.) and was equipped with a TurboIonspray ionization source. Ultra high purity nitrogen was used as the nebulizing and turbo-gas. The temperature of turbo-gas was set at 300° C. and the interface heater was set at 60° C. Selected Reaction Monitoring (SRM) was used for data acquisition. Multiple charged ion species, i.e. (M+2H)^2+ for Compound of SEQ ID NO: 158 were selected in Q1 and were collisionally dissociated with high purity nitrogen at a pressure of 3.5×10^−3 torr in Q2 to form specific product ions which were subsequently monitored in Q3. The ion transitions and voltages are summarized below (Table 4).
The standard curve concentrations, ranging from 1 to 1000 nM, were analyzed in duplicate. The curves were fitted with a linear regression weighted by reciprocal concentration […]. Quality control (QC) samples, prepared in blank matrix at the same concentrations as the standards were also analyzed in each analytical set. […]

[4] = vehicle propylene glycol/pH 7.4 phosphate buffer (1:1)
[5] = 30 nmol/kg sc, ipGTT ob/ob mice
[6] = dog, plasma, 67 ug/kg, male beagle dogs, intravenous 67 μg/kg
[7] = dog, plasma, sc, 67 ug/kg, male beagle dogs, subcutaneous 67 μg/kg
[8] = vehicle 0.2 M Tris buffer (pH 8.0)

Exposure/dose during ipGTT in ob/ob mice [2] [nM * h/nmol/kg]	Exposure in dogs (sc@67 μg/kg) [3, 4] [µM·h]	Exposure in dogs (sc@67 μg/kg) [3, 8] [µM·h]	Structure (SMILES)	Potency in ob/ob mice: % AUC Reduction in Plasma Glucose in an IP Glucose Tolerance Test after SC Injection of Compound [1]	effect on postprandial plasma insulin ([1]; ipGTT ob/ob mice)	effect on postprandial plasma glucose ([1]; ipGTT ob/ob mice)	Potency in ob/ob mice ED50 [1]	other results
22	0.089	–	CCc1cc(OC)ccc1-c1ccc(C[C@H](NC(=O)[C@H](CC(=O)O)NC(=O)[C@H](CO)NC(=O)[C@@H](NC(=O)C(C)(Cc2ccccc2F)NC(=O)[C@@H](NC(=O)CNC(=O)[C@H](CCC(=O)O)NC(=O)C(C)(C)NC(=O)[C@@H](N)Cc2c[nH]cn2)C(C)O)C(C)O)C(=O)N[C@@H](Cc2ccc(-c3ccccc3C)cc2)C(N)=O)cc1 (stereo partly drawn) [Compound I, reference compound] (H-H[Aib]EG[Thr(3ξ)][ξαMePhe(2-F)][Thr(3ξ)]SD[Bip(2'-Et-4'-OMe)][Bip(2'-Me)]-NH2)	−15% (p = 0.247, NS)	statistically significant dose-dependent increase	decreasing in a dose-dependent manner	–	–
18	1.23	0.452	CCc1cc(OC)ccc1-c1ccc(C[C@H](NC(=O)[C@H](CC(=O)O)NC(=O)[C@H](CO)NC(=O)[C@@H](NC(=O)C(C)(Cc2ccccc2F)NC(=O)[C@@H](NC(=O)CNC(=O)[C@H](CCC(=O)O)NC(=O)C(C)(C)NC(=O)[C@@H](N)Cc2c[nH]cn2)C(C)O)C(C)O)C(=O)N[C@@H](Cc2ccc(-c3ccccc3C)nc2)C(N)=O)cc1 (stereo partly drawn) [SEQ ID NO: 9] (H-H[Aib]EG[Thr(3ξ)][ξαMePhe(2-F)][Thr(3ξ)]SD[Bip(2'-Et-4'-OMe)][Ala(6-(2-MePh)pyridin-3-yl)]-NH2)	−68% (p < 0.0001)	significant increase	statistically significant decrease	5 nmol/kg	maximum increase in postprandial plasma insulin AUC [1, 5]: 187.7%; plasma glucose AUC decreased ([1]; 100 nmol/kg sc, ipGTT ob/ob mice): 85.8%; Potency in ob/ob mice ED50 ([1]; listed as 9): ED50 = 5 nmoles/kg; AUC [3, 6]: 0.529 ± 0.125 µM·h; MRT [3, 6]: 2.4 ± 0.5 h; clearance ([3]; dog, plasma, 67 ug/kg, male beagle dogs, intravenous 67 μg/kg, read-out: CLp): 1.4 ± 0.4 mL/min/kg; Vd ([3]; dog, plasma, 67 ug/kg, male beagle dogs, intravenous 67 μg/kg, read-out: Vss): 0.21 ± 0.07 L/kg; half-life [3, 6]: 7.1 ± 2.1 h; AUC [3, 7]: 0.452 ± 0.153 µM·h; Cmax [3, 7]: 116 ± 34 nM; MRT [3, 7]: 3.6 ± 1 h; Tmax [3, 7]: 1.1 ± 0.6 h; half-life [3, 7]: 2.6 ± 1.2 h; bioavailability ([3]; dog, plasma, male beagle dogs, subcutaneous 67 μg/kg vs intravenous): 93 ± 22%
4.4	4.02	–	CCc1cc(OC)ccc1-c1ccc(C[C@H](NC(=O)[C@H](CC(=O)O)NC(=O)[C@H](CO)NC(=O)[C@@H](NC(=O)C(C)(Cc2ccccc2F)NC(=O)[C@@H](NC(=O)CNC(=O)[C@H](CCC(=O)O)NC(=O)C2(C)CCCN2C(=O)[C@@H](N)Cc2c[nH]cn2)[C@@H](C)O)[C@@H](C)O)C(=O)N[C@@H](Cc2ccc(-c3ccccc3C)nc2)C(N)=O)cc1 (stereo partly drawn) [SEQ ID NO: 118] (H-H[ξαMeP]EGT[ξαMePhe(2-F)]TSD[Bip(2'-Et-4'-OMe)][Ala(6-(2-MePh)pyridin-3-yl)]-NH2)	−70% (p < 0.001)	–	statistically significant decrease	2.5 nmol/kg	plasma glucose AUC decreased [1, 5]: 81%; Potency in ob/ob mice ED50 ([1]; listed as 118): ED50 = 2.5 nmoles/kg
16	–	1.566	CCc1cc(OC)ccc1-c1ccc(C[C@H](NC(=O)[C@H](CC(=O)O)NC(=O)[C@H](Cc2c[nH]cn2)NC(=O)[C@@H](NC(=O)C(C)(Cc2ccccc2F)NC(=O)[C@@H](NC(=O)CNC(=O)[C@H](CCC(=O)O)NC(=O)C2(C)CCCN2C(=O)[C@@H](O)Cc2c[nH]cn2)[C@@H](C)O)[C@@H](C)O)C(=O)N[C@@H](Cc2ccc(-c3ccccc3C)nc2)C(N)=O)cc1 (stereo partly drawn) [SEQ ID NO: 151] ({Lactoyl(3-(imidazol-4-yl))}-[ξαMeP]EGT[ξαMePhe(2-F)]THD[Bip(2'-Et-4'-OMe)][Ala(6-(2-MePh)pyridin-3-yl)]-NH2)	–	–	statistically significant decrease	1 nmol/kg and 2 nmol/kg	plasma glucose AUC decreased ([1]; 3 nmol/kg sc, ipGTT ob/ob mice): 67%; Potency in ob/ob mice ED50 ([1]; listed as 151): ED50 = 1 nmoles/kg
